PMC2715367 (Journal of medicinal chemistry, 2009)
pEC50: −log10 of the molar value. Marks after values point to notes of the source that are not given here. Values belong to the compound of their own block, whether it stands above or below them.

Columns and labels:
rat PFT = rat PFT (Rattus norvegicus, UniProt Q02293+Q04631); assay: Rat PFT scintillation proximity assay; format: biochemical; conditions: for Fold increase in PFT IC50 (decrease in PFT inhibition) compared to tipifarnib: rat PFT
[1] = test system: T. cruzi trypomastigotes (Tulahuen strain); assay: Efficacy studies in T. cruzi infected mice; format: in vivo; conditions: for Weight loss in mice: 100 mg/kg twice per day, days 8−13; for Survival of infected mice: oral gavage for 20 days from day 8 post-infection
[2] = biological target: recombinant human CYP3A4 enzyme (Homo sapiens, UniProt P08684); assay: CYP3A4 inhibition assay; format: in vitro ADME; conditions: in vitro
Sequence of recombinant human CYP3A4 enzyme (P08684 whole entry): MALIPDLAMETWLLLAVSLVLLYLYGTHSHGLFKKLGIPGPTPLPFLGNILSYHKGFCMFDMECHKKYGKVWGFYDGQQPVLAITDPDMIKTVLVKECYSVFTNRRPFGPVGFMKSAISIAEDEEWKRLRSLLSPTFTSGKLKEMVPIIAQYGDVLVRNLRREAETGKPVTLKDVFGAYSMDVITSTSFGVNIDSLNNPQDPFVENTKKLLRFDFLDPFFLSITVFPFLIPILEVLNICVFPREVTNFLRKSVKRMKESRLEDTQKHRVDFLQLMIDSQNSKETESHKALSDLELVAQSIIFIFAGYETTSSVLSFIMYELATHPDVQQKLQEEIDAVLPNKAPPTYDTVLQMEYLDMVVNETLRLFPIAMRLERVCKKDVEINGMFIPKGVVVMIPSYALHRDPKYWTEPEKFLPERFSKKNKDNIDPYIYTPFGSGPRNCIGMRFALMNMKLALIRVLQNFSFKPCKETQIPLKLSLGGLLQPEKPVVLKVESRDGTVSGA

human 14DM = biological target: T1, human 14DM (Homo sapiens, UniProt Q16850); assay: Inhibition of human 14DM; format: biochemical; conditions: same conditions as Tc14DM assay
T1 sequence (Q16850 1-509): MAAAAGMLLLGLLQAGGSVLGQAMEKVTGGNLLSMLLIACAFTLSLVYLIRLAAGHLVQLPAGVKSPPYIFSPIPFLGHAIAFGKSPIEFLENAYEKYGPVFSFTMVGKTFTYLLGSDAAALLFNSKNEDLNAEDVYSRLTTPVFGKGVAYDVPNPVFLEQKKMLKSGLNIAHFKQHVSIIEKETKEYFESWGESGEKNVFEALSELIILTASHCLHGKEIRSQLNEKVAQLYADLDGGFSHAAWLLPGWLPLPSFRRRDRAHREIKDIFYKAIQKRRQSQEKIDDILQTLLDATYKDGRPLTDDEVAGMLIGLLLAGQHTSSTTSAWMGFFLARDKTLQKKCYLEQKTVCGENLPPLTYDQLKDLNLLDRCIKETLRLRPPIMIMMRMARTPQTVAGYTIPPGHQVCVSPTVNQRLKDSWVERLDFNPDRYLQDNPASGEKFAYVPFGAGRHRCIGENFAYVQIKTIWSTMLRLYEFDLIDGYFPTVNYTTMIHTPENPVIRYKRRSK

[3] = Pharmacokinetic studies in mice; conditions: female, BALB/c, mouse, po, 50 mg/kg
T. cruzi amastigotes = assay: T. cruzi growth inhibition assay; format: cell-based; conditions: Trypanosoma cruzi, read-out: T. cruzi amastigote EC50
[4] = oral; cited from earlier work
[5] = test system: mammalian cytochrome P450 enzymes; conditions: cited from earlier work
T. cruzi PFT enzyme = conditions: cited from earlier work
[6] = cited from earlier work

Fold increase in PFT IC50 (decrease in PFT inhibition) compared to tipifarnib (rat PFT): about 430 fold
SMILES: Cc1ccccc1-c1cc(=O)n(C)c2ccc([C@](N)(c3ccc(Cl)cc3)c3cncn3C)cc12 (racemic) [Compound 2d]

Inhibition of human 14DM (human 14DM): do not inhibit
SMILES: Cc1c(Cl)cccc1-c1cc(=O)n(C)c2ccc([C@](N)(c3ccc(Cl)cc3)c3cncn3C)cc12 (racemic) [Compound 2c]

Inhibition of human 14DM (human 14DM): do not inhibit
SMILES: Cn1cncc1[C@@](N)(c1ccc(Cl)cc1)c1ccc2c(c1)c(-c1cccc3ccccc13)cc(=O)n2C (racemic) [Compound 2f]

Continued, compound first:

SMILES: COC(c1ccc(Cl)cc1)(c1ccc2c(c1)c(-c1cccc(Cl)c1C)cc(=O)n2C)c1cncn1C (racemic) [Compound 2g, 4-(3-Chloro-2-methylphenyl)-6-((4-chlorophenyl)(methoxy)(1-methyl-1H-imidazol-5-yl)methyl)-1-methylquinolin-2(1H)-one]
Ratio IC50/EC50 (rat PFT; PFT IC50 / T. cruzi amastigote EC50): >7700 ^*
inhibition at 5 µM (rat PFT; read-out: PFT inhibition at highest concentration evaluated): < 50%
Weight loss in mice [1]: some weight loss was observed
Survival of infected mice [1]: One mouse in the 2g group died after the end of treatment
Inhibition of CYP3A4 (in words) [2]: weak inhibition
Inhibition of human 14DM (human 14DM): do not inhibit
Cmax ([3]; plasma): 5 to 7 µM

SMILES: Cc1cc([C@@](N)(c2ccc3c(c2)c(-c2cccc(Cl)c2)cc(=O)n3C)c2cncn2C)ccc1Cl (racemic) [Compound 2a]
Fold increase in PFT IC50 (decrease in PFT inhibition) compared to tipifarnib (rat PFT): 19 fold

SMILES: Cn1cncc1[C@@](N)(c1ccc(Cl)cc1)c1ccc2c(c1)c(-c1cccc(Cl)c1)cc(=O)n2C [Tipifarnib, tipifarnib]
pEC50 (T. cruzi amastigotes): 8.22
Weight loss in mice [1]: some weight loss was observed
Survival of infected mice [1]: did not protect the mice from death
Delay in development of high parasitemia ([1]; oral gavage twice daily from day 8 post-infection): 3−4 days
Terminal half-life [4]: 16 h
Inhibitory activity against mammalian cytochrome P450 enzymes [5]: very little inhibitory activity
Activity against isolated T. cruzi PFT enzyme (T. cruzi PFT enzyme): weak activity
Inhibition of human 14DM (human 14DM): do not inhibit
Dose limiting toxicities in humans [6]: bone marrow suppression
Cmax ([3]; in vivo): 5 to 7 µM
half-life ([3]; in vivo): ~4 h

SMILES: O=C(Cn1ccnc1[N+](=O)[O-])NCc1ccccc1 [Benznidazole, benznidazole]
Mice with positive parasite blood cultures ([1]; surviving mice sacrificed at day 103 post-infection): 3 of 6
